Key:
[1] = tested on: human MTHFR; assay: Cell-free MTHFR enzyme activity assay in crude yeast extract, with heat treatment at 55° C.; assay type: biochemical; details: crude yeast lysate
[2] = biological target: T1, human MTHFR (Homo sapiens, UniProt P42898); assay: as above; assay type: biochemical; details: 55° C., 20 m
T1 construct: made in house; host or cells: Saccharomyces cerevisiae fol3Δ met13Δ, GAL1 promoter, crude extract

Substance | cell-free enzyme activity compared with the major allele [1] | activity retained after heat treatment, of original activity [2]
R594Q: common human MTHFR variant, regulatory domain | benign | 
major allele: the most common human MTHFR allele in the population, expressed in yeast |  | about 30%
E429A: common human MTHFR variant, regulatory domain | benign | 
